Reference: patent publication US10130611B2, “Use of benzo-heterocycle derivatives for preventing and treating cancer or for inhibiting cancer metastasis” (MEDICINAL BIOCONVERGENCE RESEARCH CENTER, priority 2009, dated 2018)

Experiments:
[1] = target: T1, interaction between laminin receptor and GST-KRS (Homo sapiens, UniProt Q15046); test: In vitro pull-down of radiolabelled laminin receptor with GST-KRS; assay type: binding; conditions: KL1 in different amounts; GST-KRS 1 μg; autoradiography
T1 construct: made in house; host or cells: GST-KRS: E. coli Rosetta (DE3); 37LRP: TNT Quick coupled Transcription/Translation system (Promega) from pcDNA3-37LRP
T1 sequence (Q15046 whole entry): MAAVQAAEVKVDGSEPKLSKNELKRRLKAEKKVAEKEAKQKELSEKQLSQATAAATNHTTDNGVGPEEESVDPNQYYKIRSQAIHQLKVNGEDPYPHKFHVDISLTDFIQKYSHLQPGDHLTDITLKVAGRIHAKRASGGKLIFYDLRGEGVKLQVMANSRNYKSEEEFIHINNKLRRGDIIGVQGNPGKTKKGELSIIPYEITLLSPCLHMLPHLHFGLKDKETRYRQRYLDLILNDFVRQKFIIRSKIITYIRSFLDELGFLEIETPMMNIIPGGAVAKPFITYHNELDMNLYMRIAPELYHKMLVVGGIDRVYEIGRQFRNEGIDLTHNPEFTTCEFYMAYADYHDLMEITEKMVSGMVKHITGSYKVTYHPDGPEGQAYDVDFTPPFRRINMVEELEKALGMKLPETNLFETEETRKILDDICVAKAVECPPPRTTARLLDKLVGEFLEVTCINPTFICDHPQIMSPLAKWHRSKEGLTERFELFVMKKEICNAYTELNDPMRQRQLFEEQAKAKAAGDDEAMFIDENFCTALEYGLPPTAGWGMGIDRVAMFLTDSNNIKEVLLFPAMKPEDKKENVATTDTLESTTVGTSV
Protocol: (§1) As a control, an OD level of cells treated with DMSO was measured. FIG. 32 is a photograph showing cell growth in wells containing yeast cells having indicated interaction pairs in the presence or absence of CAND-KL1. In FIG. 33, in 293 cells, through co-immunoprecipitation, the KL1-dose-dependent effect on the interaction between KRS and 67LR was tested. The cells were treated with KL1 for 3 hours, 67LR was immunoprecipitated, and co-precipitation of KRS was determined by western blotting. In FIG. 34, in the presence of KL1 in indicated levels, a laminin receptor labeled with radioisotope was mixed with GST-KRS (1 μg). GST-KRS was precipitated with glutathione-Sepharose beads, and co-precipitated laminin receptor was detected with autoradiography. In FIG. 35, in A549 cells, the effect of KL1 on the intracellular level of 67LR and 37LRP was tested with western blotting. […] GST-KRS was immobilized on a CM5 Sensor Chip, and the binding was measured by a resonance unit (RU) at indicated concentrations (indicated by different colors). […]
(§2) From among the compounds, the inventors also examined whether the compound represented by Formula 15 (indicated by CAND-KL1, and KL1) can inhibit the intracellular interaction between KRS and 67LR. […] Then, 67LR was immunoprecipitated with its antibody, and co-immunoprecipitation of KRS was determined. […]

[2] = target: T2, intracellular interaction between KRS and 67LR (Homo sapiens, UniProt Q15046); test: Co-immunoprecipitation of KRS with 67LR in cells treated with KL1; assay type: cell-based
T2 construct: endogenous in cells
T2 sequence (Q15046 2-597 limits assumed): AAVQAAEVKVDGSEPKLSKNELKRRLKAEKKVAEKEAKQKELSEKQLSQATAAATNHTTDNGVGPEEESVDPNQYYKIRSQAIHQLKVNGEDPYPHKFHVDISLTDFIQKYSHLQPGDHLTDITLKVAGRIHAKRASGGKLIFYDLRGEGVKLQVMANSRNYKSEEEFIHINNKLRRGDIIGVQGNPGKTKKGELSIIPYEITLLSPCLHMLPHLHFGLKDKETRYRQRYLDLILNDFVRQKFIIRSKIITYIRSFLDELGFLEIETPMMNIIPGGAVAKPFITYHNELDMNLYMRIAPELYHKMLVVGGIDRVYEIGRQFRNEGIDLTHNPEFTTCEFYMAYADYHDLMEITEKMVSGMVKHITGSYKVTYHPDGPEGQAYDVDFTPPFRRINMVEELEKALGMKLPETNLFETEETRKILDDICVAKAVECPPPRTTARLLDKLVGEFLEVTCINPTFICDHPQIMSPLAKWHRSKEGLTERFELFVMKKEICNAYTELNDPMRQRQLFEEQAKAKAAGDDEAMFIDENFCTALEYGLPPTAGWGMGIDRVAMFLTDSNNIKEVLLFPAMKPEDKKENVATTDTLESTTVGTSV
Protocol: as §1, §2

A549 cells = test: Cell migration assay (transwell membrane); assay type: cell-based, human; conditions: KL1 in different amounts, 8 hours
Protocol: On MMP2 activity (FIG. 37) and cell migration (FIGS. 38 and 39), KL1-dose-dependent effect was measured. For the test on the cell migration, the cells were treated with KL1 for 8 hours. In FIG. 40, in order to see the effect of KL1 on protein synthesis of cells, A549 cells were treated with KL1 at indicated concentrations, and starved in methionine-free medium. Then, [^35S] methionine was added thereto for 2 hours. Then, the cells were incubated in complete medium for 4 hours, and the level of added methionine was measured by a scintillation counter. In FIG. 41, KL1-dose-dependent cytotoxicity was measured by using A549 cells. In FIG. 42, the effect of KL1 on cancer metastasis was measured according to the method as described above. In each group, 6 mice were included, and KL1 was abdominally injected for 3 weeks, in a dose of 30 mg/kg once a day. […] The metastasized tumor nodules over 1 mm in diameter were counted, and their average was calculated (left). […]
Cell migration was measured by using 24-well transwell chambers with polycarbonate membranes (8.0 μm pore size, Costar) as previously described (Park, S. G. et al. Human lysyl-tRNA synthetase is secreted to trigger pro-inflammatory response, Proc. Natl. Acad. Sci. USA 102, 6356-6361 (2005)). […] The migrated cells (attached to the lower face of the membrane) were counted at four randomly selected sites by a microscope (×20).

intracellular levels of KRS and 67LR ([2]; same co-immunoprecipitation experiment (FIG. 33)): not changed
Compound: CCC(C(=O)O)n1/c(=N/C(=O)c2ccc(C)cc2)sc2ccccc21 (stereo not shown) [Compound of formula 15, 2-[2-(4-Methyl-benzoylimino)-benzothiazol-3-yl]-butyric acid]
level of laminin receptor pulled down with GST-KRS [1]: decreased according to an increase of the added KL1 compound | level of KRS co-precipitated with 67LR ([2]; cells treated with KL1 at different concentrations, 3 hours, 67LR immunoprecipitated): decreased according the increase of KL1 level | cell migration (A549 cells): inhibited
